# Reference: PubChem BioAssay (NCI)
# Values joined by “and” are separate entries in the source; they are usually repeats but may differ in a detail not shown here. Identical values can stand only once.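 These data come from cells grown in 96-well plates and exposed to compound for 48 hours at five concentrations. GI50: concentration for 50% inhibition of growth. Definition used: TGI = concentration required for complete inhibition of growth.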 Where a SMILES comes first, the peptide text is derived from it. The star is where a group is joined. Cbz = O=C(OCc1ccccc1)*; Boc = CC(C)(C)OC(=O)*; OBn = c1ccc(CO*)cc1
# Columns and labels:
# Assay in all cases: NCI-60 cell line screen, 48 h
# UACC-257 melanoma = tested on: UACC-257 melanoma
# SK-MEL-5 melanoma = tested on: SK-MEL-5 melanoma
# SK-MEL-28 melanoma = tested on: SK-MEL-28 melanoma
# SNB-75 CNS = tested on: SNB-75 CNS
# MDA-MB-435 = tested on: MDA-MB-435
# NCI-H226 lung = tested on: NCI-H226 lung
# EKVX NSCLC = tested on: EKVX NSCLC
# M14 melanoma = tested on: M14 melanoma
# T-47D breast = tested on: T-47D breast
Compound,TGI (UACC-257 melanoma) [µM],TGI (SK-MEL-5 melanoma) [µM],TGI (SK-MEL-28 melanoma) [µM],TGI (SNB-75 CNS) [µM],TGI (MDA-MB-435) [µM],TGI (NCI-H226 lung) [µM],TGI (EKVX NSCLC) [µM],TGI (M14 melanoma) [µM],TGI (T-47D breast) [µM],GI50 (UACC-257 melanoma)
c1ccc(NC2(c3nnnn3C3CCCCC3)CCNCC2)cc1,30.6,34.6,32.5,32.7,38,62.3,79.7,35.8,52.1,
CSc1ccc(C=C2N=C(c3ccccc3)N(c3cc(C(=O)c4ccccc4)ccc3N3C(=O)/C(=C/c4ccc(SC)cc4)N=C3c3ccccc3)C2=O)cc1,> 100,> 100,> 100,61.5,> 100,,> 100,> 100,> 100,
OCC1OC(NC(=S)NCSCCC(F)(F)C(F)(F)C(F)(F)C(F)(F)C(F)(F)C(F)(F)F)C(O)C(O)C1O (configuration not stated),> 100,,> 100,> 100,> 100,,,62.1,> 100,
CC(=O)NC1C(OCc2ccccc2)OC(CO)C(O)C1OC(C)C(=O)NC(C(=O)NC(CCC(=O)Nc1ccc2c(c1)CN1C(=O)c3ccccc3C1=N2)C(N)=O)C(C)C (configuration not stated),> 100,> 100,> 100,> 100,> 100,,> 100,> 100,> 100,
O=c1[nH]nc(Cc2ccc(Cl)cc2)n1Nc1ccccc1,> 100,> 100,> 100,> 100,> 100,> 100,> 100,> 100,> 100,
c1ccc2c(c1)SCCCSCCCS2,> 100,> 100,> 100,> 100,> 100,,> 100,> 100,> 100,
O=C(O)C1CCCCN1CCc1c[nH]c2ccccc12 (configuration not stated),> 100,,> 100,> 100,> 100,> 100,> 100,> 100,> 100,
Brc1ccc(C2(N3CCCCC3)CCCCC2)s1,94.6,22.3,,,73.3,,> 100,71.4,49.5,
COc1cc(-c2c(C(C)=O)c(-c3ccccc3)n(C3OC(COC(C)=O)C(OC(C)=O)C(OC(C)=O)C3OC(C)=O)c(=S)c2C#N)ccc1O (configuration not stated),> 100,> 100,> 100,,> 100,,> 100,> 100,,> 100 µM and 34.9 µM
O=C(N/N=C1\CCc2ccccc21)N/N=C1\CCc2ccccc21,> 100,> 100,> 100,> 100,> 100,> 100,,26.3,> 100,
CCC1c2[nH]c3ccccc3c2C[C@H]2C(=O)NC(Cc3ccccc3)C(=O)N12 (some centres not stated),49.6,35.5,> 100,,43.8,74.9,95,86.1,73.1,
CCCCC[C@H]1CC=CC(=O)O1,32.6,21.3,20.5,,23,23.9,56.7,26.7,30.9,
c1cc(-c2ccc(Oc3ccc(-c4ccncc4)cc3)cc2)ccn1,> 68.3,5.52,> 95.1,> 73.7,,> 100,> 67.1,> 100,> 100,
CN(N=O)C(N)=NC(=O)c1ccccc1,> 100,> 100,,> 100,> 100,> 100,> 100,> 100,> 100,
COc1ccc(OC)c(CC(=O)c2ccc(O)c(C(=O)NCCc3ccc(F)cc3)c2)c1,44.8,11.4,> 100,6.9,,,36.2,9.2,8.44,
CCOC(=O)c1cc(NC(=O)c2ccccc2)c(=O)n2c(cc3c(Cl)cccc32)c1O,> 100,> 100,> 100,,> 100,> 100,> 100,> 100,,
O=C1C2=Cc3ccccc3CCN2c2ccc([N+](=O)[O-])cc21,> 100,> 100,> 100,> 100,> 100,> 100,> 100,> 100,,
C=CCSC1=N/C(=C\c2ccco2)C(=O)N1CC=C,> 100,> 100,> 100,,> 100,> 100,> 100,> 100,> 100,

Compound,TGI (UACC-257 melanoma) [µM],TGI (SK-MEL-5 melanoma) [µM],TGI (SK-MEL-28 melanoma) [µM],TGI (SNB-75 CNS) [µM],TGI (MDA-MB-435) [µM],TGI (NCI-H226 lung) [µM],TGI (EKVX NSCLC) [µM],TGI (M14 melanoma) [µM],TGI (T-47D breast) [µM],GI50 (UACC-257 melanoma)
COc1cc(/C=C2\N=C(c3ccccc3)N(/N=C/c3cc4cc(C)ccc4nc3Cl)C2=O)ccc1O,> 100,> 100,> 100,83.9,36.7,,> 100,> 100,> 100,
Nc1nc(Cl)cc(NCC2(CO)CC(O)C2)n1 (configuration not stated),> 100,> 100,> 100,> 100,> 100,> 100,> 100,,> 100,
COC(=O)C(CCCCNC(=O)OCc1ccccc1)NC(=O)C(CCC(=O)OCc1ccccc1)NC(=O)OC(C)(C)C (configuration not stated) (Boc-Glu(OBn)-Lys(Cbz)-OMe; configuration not given here),,> 100,> 100,> 100,> 100,> 100,> 100,> 100,> 100,
CC(=O)/C(=C\n1c(=S)[nH]c2ccc([N+](=O)[O-])cc21)C(=O)Nc1ccccc1C,> 100,> 100,> 100,,> 100,> 100,> 100,> 100,> 100,
CC(=O)NC1C(OCc2ccccc2)OC(CO)C(O)C1OCC(=O)NC(C)C(=O)NC(CCC(=O)Nc1ccc2c(c1)CN1C(=O)c3ccccc3C1=N2)C(N)=O (configuration not stated),> 100,> 100,> 100,> 100,> 100,,> 100,> 100,> 100,
Cc1c(/C=N\NC(=S)N(C)CCN(C)C(=S)N/N=C\c2c(C)n(C)n(-c3ccccc3)c2=O)c(=O)n(-c2ccccc2)n1C,> 100,> 100,,> 100,> 100,> 100,> 100,> 100,> 100,
CN(C)c1ccc(C=Nc2ccc(-c3nc4ccccc4o3)cc2)cc1,72.5,29.8,> 100,> 100,> 100,,87.1,> 100,58.3,
CCOC(=O)C(NC(=O)Nc1ccccc1F)(OC)C(F)(F)F (configuration not stated),> 100,> 100,> 100,> 100,> 100,,> 100,> 100,> 100,
NC1=NC(=O)[C@H](CSCc2ccccc2)N1C(=O)OCc1ccccc1,> 100,> 100,,> 100,> 100,> 100,> 100,,,
COC(=O)C(NC(=O)C12CCC(C)(C(=O)O1)C2(C)C)c1cc(C(C)(C)C)c(O)c(C(C)(C)C)c1 (configuration not stated),,> 100,> 100,> 100,> 100,> 100,> 100,> 100,> 100,
COc1ccc(-c2c(C(=O)Nc3ccccc3)c(-c3ccccc3)n(C3OC(CO)C(O)C(O)C3O)c(=S)c2C#N)cc1 (configuration not stated),> 100,> 100,> 100,,> 100,> 100,> 100,> 100,,
c1ccc2c(-c3ccnc(-c4c[nH]c5ccccc45)n3)c[nH]c2c1,> 100,15,> 100,,> 100,,> 100,,26.9,
O=C1Nc2ccccc2/C1=C\c1c(Cl)[nH]c2ccccc12,17,2.04,0.78,,0.417,35.5,5.29,4.12,> 100,
CCCN=C1S/C(=C/c2ccc(OC)c(OC)c2)C(=O)N1c1ccccc1,> 100,> 100,> 100,,> 100,95,> 100,> 100,> 100,
N#CCCN(CCC#N)c1ccc(/C=C2\N=C(c3ccccc3)N(NC(=O)c3ccncc3)C2=O)cc1,> 100,> 100,> 100,,> 100,> 100,> 100,> 100,> 100,
COc1cccc2c(=O)c3c(O)c4cc(N(C)C)ccc4c(OC(C)=O)c3oc12,32.2,25.1,22.3,51.4,31.4,75.3,25.8,29.9,,
COc1ccc2c(c1)OCC1Cc3cccc(OC)c3OC21 (configuration not stated),> 100,35.7,,,> 100,> 100,> 100,> 100,> 100,
CCOC(=O)CC(=O)Nc1c(C(=O)OCC)sc2nc(SC)nc(Nc3ccc(OC)c(OC)c3)c12,> 100,> 100,> 100,21.9,> 100,> 100,> 100,> 100,,
